Reference: patent US5840696A (priority 1997, dated 1998)

Legend:
[1] = test system: constitutive nitric oxide synthase (cNOS); test: influence of L-NAME on urine flow rate responses in conscious rats; details: L-NAME 30 mg/Kg i.v., 45 min before infusion
pulmonary vascular bed = pulmonary vascular bed of the intact-chest anesthetized rat under elevated pulmonary vasomotor tone; assay type: in vivo; details: intralobar arterial bolus injections
Description: Since pulmonary blood flow and left atrial pressure were held constant, the decreases in pulmonary artery pressure directly reflect decreases in pulmonary vascular resistance. N=number of animals.
Male Charles River rats (260-340 go) were anesthetized with an intraperitoneal injection of pentobarbital sodium (30 mg/kg), and allowed to breath air enriched with oxygen through an endotracheal tube inserted by tracheotomy. The anesthetized animals were strapped in a supine position to a fluoroscopic table, and catheters were inserted in femoral blood vessels. A specially designed triple lumen balloon perfusion catheter was constructed (Nu-Med, Hopkinton, N.Y.). This catheter is 145 mm in length, […]. and with specially curved tip to facilitate passage through the right heart and main pulmonary artery into the artery supplying the right lower lung lobe. At the distal tip of the catheter is a pressure port through which a 0.25 mm soft tip coronary artery angioplasty guide wire is inserted. […] Mean pressure in the right lower lobe artery and the aorta were continuously recorded. […] Since this catheter perfuses approximately one-sixth of the lung, as determined by measuring lung weight, this perfusion rate approximate physiologic flow for that lung area, i.e. at least 15-20% of the 75-85 ml/min normal total pulmonary blood flow of the rat. […]

[2] = test system: intact-chest, anesthetized rats; test: bolus injection into right atrium versus left atrium, systemic arterial pressure (first-pass lung transit); assay type: in vivo, rat; details: inferred from right versus left atrial injection
From the text: Such a hemodynamic profile would be particularly desireable in patients experiencing congestive heart failure since pulmonary vasodilation would be expected to enhance resolution of pulmonary edema and systemic vasodilation (i.e. afterload reduction) would be expected to enhance myocardial performance.

[3] = test system: systemic vascular bed of the anesthetized rat; test: systemic vasodepressor response to bolus i.v. nociceptin in the anesthetized rat; assay type: in vivo
Description: N=number of animals. *p<0.05 when compared to corresponding control value.
Male rats (250-300 g) were anesthetized with pentobarbital sodium (30 mg/kg i.p.). Catheters were placed into a femoral artery and femoral vein for measurement of systemic […] blood pressure and administration of drugs, respectively. Cardiac output was calculated by using Columbus 2F thermodilution catheter placed fluoroscopically in the ascending aortic arch assess changes in temperature following a thermal reference injection of saline (0.2 ml) at room temperature into the right atrium via a jugular venous catheter. Changes in systemic arterial pressure were measured using a Gould P23Id pressure transducer and recorded on a Grass Model 7A recorder. Cardiac output was determined using a Columbus Cardiomax thermodilution cardiac output computer.
Values are means +/-SE; N=6. *p,0.05 compared with corresponding control (paired t test).

rat kidney = test: site of infusion (right renal artery, suprarenal and infrarenal aorta, intravenous) and urine flow rate; assay type: in vivo; details: direct right renal arterial administration
[4] = test system: conscious Sprague-Dawley rats; test: i.v. bolus administration of 30 μg nociceptin in conscious rats; assay type: in vivo, rat; details: i.v. bolus 30 μg
Description: Abbreviations are HR, heart rate; MAP, mean arterial pressure; V, urine flow rate; and UNa V, urinary sodium excretion. Statistical significance within each group was determined by a repeated measures analysis of variance followed by a Bonferroni multiple comparisons test; asterisks (a, b, or c) denote a significant change (p<0.05) from control within each group.
Anesthetized male Sprague-Dawley rats (275-300 g, Sprague-Dawley, Inc., Indianapolis, Ind.) were implanted with chronic arterial and venous cannulas and a bladder catheter in accordance with previously published methods (10, 12). For experiments in which drugs were administered i.c.v., a stainless steel cannula was stereotaxically implanted into the right lateral ventricle of rats under anesthesia at least 5-7 days prior to experimentation (11). On the morning of the study rats were placed in a rat holder which permits forward and backward movement and allows for collection of urine from the bladder catheter. Conscious rats were then infused i.v. with isotonic saline (50 μl/min) for the duration of the experiment. The arterial cannulae was then flushed and attached to a pressure transducer (Statham P23Db) and the urinary bladder catheter led to a collection beaker. […]

[5] = 0.3 ug, i.v. bolus, mean +/- SE, N=6
[6] = 1.0 ug, i.v. bolus, mean +/- SE, N=6
[7] = 3.0 ug, i.v. bolus, mean +/- SE, N=6

CC(C)C[C@H](NC(=O)[C@H](CCCCN)NC(=O)[C@H](CCCN=C(N)N)NC(=O)[C@H](C)NC(=O)[C@H](CO)NC(=O)[C@H](CCCCN)NC(=O)[C@H](CCCN=C(N)N)NC(=O)[C@H](C)NC(=O)CNC(=O)[C@@H](NC(=O)[C@H](Cc1ccccc1)NC(=O)CNC(=O)CNC(=O)[C@@H](N)Cc1ccccc1)[C@@H](C)O)C(=O)N[C@@H](C)C(=O)N[C@@H](CC(N)=O)C(=O)N[C@@H](CCC(N)=O)C(=O)O [nociceptin]
increase in urine flow rate (V) in response to i.v. infusion after L-NAME [1]: significantly inhibited
pulmonary vasodilator response after L-NAME and L-NIO (pulmonary vascular bed): inhibit
effect on the pulmonary vascular bed (pulmonary vascular bed; tone elevated with U46619): dilates the pulmonary vascular bed
first-pass uptake or metabolism in the lung [2]: does not undergo significant first-pass uptake or metabolism
Cardiac Output [3, 5]: 111.3 ± 49.6 mL/min
Systemic Arterial Pressure [3, 5]: 150.0 +/- 15.5 mmHg
Systemic Vascular Resistance [3, 5]: 1.1 +/- 0.1 mmHg/ml/min
Cardiac Output [3, 6]: 102.8 ± 4.5 mL/min
Systemic Arterial Pressure [3, 6]: 141.0 +/- 17.8 mmHg
Systemic Vascular Resistance [3, 6]: 1.1 +/- 0.2 mmHg/ml/min
Cardiac Output [3, 7]: 96.8 ± 34.4 mL/min
Systemic Arterial Pressure [3, 7]: 109.6 +/- 19.8 mmHg
Systemic Vascular Resistance [3, 7]: 0.8 +/- 0.1 mmHg/ml/min
systemic vasodepressor response after L-NAME or L-NIO ([3]; 45 min after L-NAME or L-NIO): significantly inhibited
Cardiac Output ([3]; bolus i.v. doses): did not significantly alter cardiac output
systemic vasodepressor response after glybenclamide and meclofenamate ([3]; bolus i.v. injections, anesthetized rats): not inhibited
Systemic Arterial Pressure ([3]; bolus i.v. injections, pentobarbital-anesthetized rats): decreased systemic arterial pressure in a dose-dependant manner
left or right ureteral flow rate (rat kidney): did not increase
cardiovascular and renal parameters [4]: did not alter any cardiovascular or renal parameter
